Article PMC9490236, “Accurate de novo design of membrane-traversing macrocycles” (Cell, 2022)
Where “and” joins values, the source holds several entries; their conditions need not be identical. Identical values can stand only once. Like-named read-outs stand apart in the source and are kept apart here.

Assay: Pharmacokinetics and oral bioavailability of D8.3.p1 and D10.1 in Balb/C female mice (PO, SQ, IV)
Format: in vivo
Protocol: In vivo bioavailability assays were conducted in mice and rats. D8.3.p1 and D10.1 were studied in female Balb/C mice by van Voorhis group at University of Washington. D11.2 was evaluated in Sprague Dawley (SD) rats by Robert Griffin’s group at Takeda Pharmaceuticals. D11.3 was studied in the male swiss albino mice by the contract research organization, GVK Biosciences Pvt. Ltd., Hyderabad, India. All animals used in these studies were handled in strict accordance with practices made to minimize suffering. All animal experiments conducted at the University of Washington, USA, and Takeda Pharmaceuticals, USA were approved by the Institutional Animal Care and Use Committee. Animal studies at GVK Biosciences were reviewed and approved by the Institutional Animal Ethics Committee of GVK Biosciences. We selected four designed macrocycles with diverse structures and in vitro rates of permeability for in vivo oral bioavailability studies in the rodent models. Due to the intensive resource requirements for such studies, these studies were conducted by three different research groups. D8.3.p1 and D10.1 were studied in female Balb/C mice by van Voorhis group at University of Washington. D11.2 was evaluated in Sprague Dawley (SD) rats by Robert Griffin’s group at Takeda Pharmaceuticals. D11.3 was studied in the male swiss albino mice by the contract research organization, GVK Biosciences Pvt. Ltd., Hyderabad, India. […] Blood samples were collected at multiple time points and plasma was separated from whole blood using centrifugation and stored at -80°C. […] Samples were mixed, centrifuged, and supernatant harvested for LC-MS analysis. For RP-HPLC analysis, peptides were evaluated using Agilent ZORBAX Eclipse Plus C18 1.8 μm, 2.1 mm x 50 mm and Waters Xevo TQ-S micro Triple Quadrupole/ACQUITY UPLC H-Class. […] Pharmacokinetic parameters were modeled using the Phoenix WinNonlin software package. […]

[1] = D10.1 PO 12.2 mg/kg, individual mice M1, M2, M3, 12.2 mg/kg
[2] = D10.1 PO 12.2 mg/kg, mean n=3, 12.2 mg/kg
[3] = D10.1 SQ 12.2 mg/kg, individual mice M1, M2, M3
[4] = D10.1 SQ 12.2 mg/kg, individual mice M2, M3 (M1 NA)

Compound: CC[C@H](C)[C@@H]1NC(=O)[C@@H](CC(C)C)NC(=O)[C@H](CC(C)C)N(C)C(=O)[C@H](Cc2ccccc2)NC(=O)CN(C)C(=O)[C@@H]2CCCN2C(=O)[C@H](C(C)C)NC(=O)[C@H](Cc2ccccc2)N(C)C(=O)[C@H]2CCCN2C(=O)[C@H](CC(C)C)NC1=O [Design D10.1, DLEU ILE LEU DPRO *PHE VAL PRO *GLY PHE *LEU]
- Plasma level (D10.1 PO 12.2 mg/kg, 15 min, individual mice M1, M2, M3, 12.2 mg/kg): 2260 nM
- Plasma level (D10.1 PO 12.2 mg/kg, 15 min, mean n=3, 12.2 mg/kg): 2580 nM
- Plasma level (D10.1 PO 12.2 mg/kg, 30 min, individual mice M1, M2, M3, 12.2 mg/kg): 2490 nM and 3640 nM and 2640 nM
- Plasma level (D10.1 PO 12.2 mg/kg, 30 min, mean n=3, 12.2 mg/kg): 2920 nM
- Plasma level (D10.1 PO 12.2 mg/kg, 60 min, individual mice M1, M2, M3, 12.2 mg/kg): 2140 nM and 1640 nM and 1570 nM
- Plasma level (D10.1 PO 12.2 mg/kg, 60 min, mean n=3, 12.2 mg/kg): 1780 nM
- Plasma level (D10.1 PO 12.2 mg/kg, 120 min, mean n=3, 12.2 mg/kg): 720 nM
- Plasma level (D10.1 PO 12.2 mg/kg, 240 min, mean n=3, 12.2 mg/kg): 160 nM
- Plasma level (D10.1 PO 12.2 mg/kg, 360 min, individual mice M1, M2, M3, 12.2 mg/kg): 0 nM and 100 nM
- Plasma level (D10.1 PO 12.2 mg/kg, 360 min, mean n=3, 12.2 mg/kg): 70 nM
- Plasma level (D10.1 PO 12.2 mg/kg, 1440 min, individual mice M1, M2, M3): 0 nM
- Plasma level (D10.1 PO 12.2 mg/kg, 1440 min, mean n=3): 0 nM
- Tmax (D10.1 PO 12.2 mg/kg, individual mice M1, M2, M3): 0.5 h
- AUC0-∞ [1]: 226.62 µmol·min/L and 337.03 µmol·min/L and 276.18 µmol·min/L
- AUC(0-t) [1]: 216.96 µmol·min/L and 327.78 µmol·min/L and 266.45 µmol·min/L
- Cl/F [1]: 0.000944 L/min and 0.000635 L/min and 0.000775 L/min
- T1/2 [1]: 1.051 h and 1.132 h
- Cmax (D10.1 PO 12.2 mg/kg, individual mice M1, M2, M3, 12.2 mg/kg, read-out: Cmax): 3640 nM and 2640 nM
- AUC0-∞ [2]: 279.94 µmol·min/L
- AUC(0-t) [2]: 270.4 µmol·min/L
- Plasma level (D10.1 SQ 12.2 mg/kg, 15 min, mean n=3): 2530 nM
- Plasma level (D10.1 SQ 12.2 mg/kg, 30 min, individual mice M1, M2, M3): 1810 nM and 3690 nM and 5150 nM
- Plasma level (D10.1 SQ 12.2 mg/kg, 30 min, mean n=3): 3550 nM
- Plasma level (D10.1 SQ 12.2 mg/kg, 60 min, individual mice M1, M2, M3): 1870 nM and 4880 nM and 5030 nM
- Plasma level (D10.1 SQ 12.2 mg/kg, 60 min, mean n=3): 3930 nM
- Plasma level (D10.1 SQ 12.2 mg/kg, 360 min, mean): 2290 nM
- Plasma level (D10.1 SQ 12.2 mg/kg, 1440 min, individual mice M1, M2, M3): 0 nM
- Plasma level (D10.1 SQ 12.2 mg/kg, 1440 min, mean n=3): 10 nM
- AUC(0-t) [3]: 730.93 µmol·min/L and 3578.6 µmol·min/L and 1329.09 µmol·min/L
- Tmax [3]: 6 h and 1 h
- Cmax (D10.1 SQ 12.2 mg/kg, individual mice M1, M2, M3, read-out: Cmax): 2400 nM and 4880 nM and 5150 nM
- AUC0-∞ [4]: 3585.94 µmol·min/L and 2148.41 µmol·min/L
- Cl/F [4]: 5.97e-05 L/min and 9.96e-05 L/min
- T1/2 [4]: 4.3302 h
- AUC0-∞ (D10.1 SQ 12.2 mg/kg, mean): 2867.17 µmol·min/L
- Half-life T1/2 (D10.1 SQ 12.2 mg/kg, mean): 3.7563 ± 0.8117 h
- AUC(0-t) (D10.1 SQ 12.2 mg/kg, mean n=3): 1879.54 µmol·min/L
- clearance (female, Balb/C, mouse, plasma, iv, […], D10.1 IV […], individual mice M1, M2, M3, read-out: CLP): 3.46 mL/min/kg
- half-life (female, Balb/C, mouse, plasma, iv, […], D10.1 IV […], individual mice M1, M2, M3, read-out: T1/2): 1.21 h
- Vd (female, Balb/C, mouse, plasma, iv, […], D10.1 IV […], individual mice M1, M2, M3, read-out: VSS): 0.32 L/kg
- Vd (female, Balb/C, mouse, plasma, iv, […], D10.1 IV […], individual mice M1, M2, M3, read-out: VZ): 0.36 L/kg
- half-life (female, Balb/C, mouse, plasma, iv, […], D10.1 IV […], mean n=3, read-out: Half-life T1/2): 1.12 ± 0.113 h
- clearance (female, Balb/C, mouse, plasma, iv, […], D10.1 IV […], mean n=3, read-out: Plasma clearance CLP): 3.26 ± 0.37 mL/min/kg
- Vd (female, Balb/C, mouse, plasma, iv, […], D10.1 IV […], mean n=3, read-out: Volume of distribution @ steady state VSS): 0.25 ± 0.08 L/kg
- Vd (female, Balb/C, mouse, plasma, iv, […], D10.1 IV […], mean n=3, read-out: Volume of distribution during elimination phase VZ): 0.32 ± 0.07 L/kg
- level at time molar at 0.25 h (female, Balb/C, mouse, plasma, po, 12.2 mg/kg, D10.1 PO 12.2 mg/kg, 15 min, individual mice M1, M2, M3, read-out: Plasma level): 2220 nM
- level at time molar at 2 h (female, Balb/C, mouse, plasma, po, 12.2 mg/kg, D10.1 PO 12.2 mg/kg, 120 min, individual mice M1, M2, M3, read-out: Plasma level): 540 nM
- level at time molar at 4 h (female, Balb/C, mouse, plasma, po, 12.2 mg/kg, D10.1 PO 12.2 mg/kg, 240 min, individual mice M1, M2, M3): 130 nM
- level at time molar at 6 h (female, Balb/C, mouse, plasma, po, 12.2 mg/kg, D10.1 PO 12.2 mg/kg, 360 min, individual mice M1, M2, M3, read-out: Plasma level): 100 nM
- Cmax (female, Balb/C, mouse, plasma, po, 12.2 mg/kg, D10.1 PO 12.2 mg/kg, individual mice M1, M2, M3, read-out: Cmax): 2490 nM
- half-life (female, Balb/C, mouse, plasma, po, 12.2 mg/kg, D10.1 PO 12.2 mg/kg, individual mice M1, M2, M3, read-out: T1/2): 0.831 h
- Tmax (female, Balb/C, mouse, plasma, po, 12.2 mg/kg, D10.1 PO 12.2 mg/kg, individual mice M1, M2, M3, read-out: Tmax (converted)): 0.5 h
- half-life (female, Balb/C, mouse, plasma, po, 12.2 mg/kg, D10.1 PO 12.2 mg/kg, mean n=3, read-out: Half-life T1/2): 1 ± 0.156 h
- Cmax (female, Balb/C, mouse, plasma, po, 12.2 mg/kg, D10.1 PO 12.2 mg/kg, mean n=3, read-out: Max concentration Cmax): 2920 ± 630 nM
- Tmax (female, Balb/C, mouse, plasma, po, 12.2 mg/kg, D10.1 PO 12.2 mg/kg, mean n=3, read-out: Time of max concentration Tmax (converted)): 0.5 h
- bioavailability (female, Balb/C, mouse, plasma, po, 12.2 mg/kg, read-out: Oral bioavailability F): 7.48 ± 1.79%
- level at time molar at 6 h (female, Balb/C, mouse, plasma, sc, 12.2 mg/kg, D10.1 SQ 12.2 mg/kg, 360 min, individual mice M1, M3 (M2 ND), read-out: Plasma level): 2400 nM
- level at time molar at 24 h (female, Balb/C, mouse, plasma, sc, 12.2 mg/kg, D10.1 SQ 12.2 mg/kg, 1440 min, individual mice M1, M2, M3, read-out: Plasma level): 30 nM
- AUC(0-inf) (female, Balb/C, mouse, plasma, sc, D10.1 SQ 12.2 mg/kg, mean): 47.8 µM·h
- AUC(0-t) (female, Balb/C, mouse, plasma, sc, D10.1 SQ 12.2 mg/kg, mean n=3, read-out: AUC0-t (converted)): 1880 µmol·min/L
- half-life (female, Balb/C, mouse, plasma, subcutaneous, 12.2 mg/kg, D10.1 SQ 12.2 mg/kg, individual mice M2, M3 (M1 NA), read-out: T1/2): 3.18 h
- AUC(0-inf) (female, Balb/C, mouse, plasma, D10.1 PO 12.2 mg/kg, mean n=3): 4.67 µM·h
- AUC(0-t) (female, Balb/C, mouse, plasma, D10.1 PO 12.2 mg/kg, mean n=3, read-out: AUC0-t (converted)): 270 µmol·min/L
- CL/F (female, Balb/C, mouse, plasma, D10.1 PO 12.2 mg/kg, mean n=3, read-out: Apparent clearance Cl/F): 0.785 mL/min
- half-life (mouse, in vivo, sc, 12.2 mg/kg, D10.1 after SQ administration, read-out: plasma half-life T1/2 (converted)): 3.75 h
